Like-named read-outs stand apart in the source and are kept apart here. Starred links: 1 amine or outer side, 2 acyl side, 3 side chain; linkers in the order of their positions; H or OH if unused. Residues, ends and D or L forms follow the SMILES beside them. *: point of attachment. Sphinganine = CCCCCCCCCCCCCCC[C@@H](O)[C@H](CO)N*; Palmitoyl = CCCCCCCCCCCCCCCC(=O)*; CO = O=C([*:1])[*:2]
Key:
[1] = system: fully infectious HIV-1 HXB2
[2] = system: pseudotyped virus with LAI ENV (CXCR4 tropic)
[3] = Secondary structure determination by circular dichroism; assay type: physicochemical; conditions: percentage of α-helical structure, CD, 10 μM peptide in HEPES buffer 5 mM pH 7.4, 25° C.
Protocol: Secondary structure determination. Circular Dichroism (CD) measurements were performed by using an AppliedPhoto physics spectropolarimeter. The spectra were scanned using a thermostatic quartz cuvette with a path length of 1 mm. Wavelength scans were performed at 25° C.; the average recording time was 15 sec, in 1-nm steps, in the wavelength range of 190-260 nm. Each peptide concentration was 10 μM in HEPES buffer (5 mM, pH 7.4).
Helicity (%): The percentage of α-helical structure was determined as described in the section of Materials and Methods.

[4] = Peptide binding to LUV, PC:Chol (9:1); conditions: Ka, NBD-labeled compound titrated with LUV; mean±s.d. of the fitting curve, n=3
Protocol: (§1) Lipid vesicle preparation. Large unilamellar vesicles (LUV) were prepared from egg phosphatidylcholine (PC), cholesterol (Chol) and egg yolk sphingomyelin (SM) (Sigma Chemical Co., Israel). A dried film of lipids containing a total of 2 mg of PC:SM:Chol (1:1:1) or 2 mg of PC:Chol (9:1) was suspended in PBS and vortexed for 1.5 min. The lipid suspension underwent five cycles of freezing-thawing and then extrusion through polycarbonate membranes with 1 μm and 0.1 μm diameter pores for 25 times.
(§2) Peptide binding to LUV. The degree of peptide association with lipid vesicles was measured by adding lipid vesicles to 0.1 μM fluorescently NBD-labeled peptides at room temperature. The fluorescence intensity was measured as a function of the lipid:peptide molar ratio, with excitation set at 467 nm (10-nm slit) and emission set at 530 nm (10-nm slit). To determine the extent of the lipid's contribution to any given signal, the readings after the addition of lipid vesicles were subtracted as background from the recorded fluorescence intensity. The affinity constants were then determined by steady state affinity model using non-linear least-squares (NLLSQ). The NLLSQ fitting was done using the following equation: […]
(§3) where X is the lipid concentration, Y(x) is the fluorescence emission, Fmax is the maximal difference in the emission of NBD-labeled peptide before and after the addition of lipids (it represents the maximum peptide bound to lipid), and Ka is the affinity constant.
(§4) Compound association with lipid vesicles was estimated by NBD-labeled compound titration with large unilamellar vesicles. The mole ratio between phosphatidylcholine (PC), sphingomyelin (SM), and cholesterol (Chol) is presented for each vesicle. The membrane-binding constants (Ka) were calculated from equation 2 in the Methods. Results represent the mean±s.d. of the fitting curve, n=3.

[5] = Hydrophobicity by RP-HPLC; assay type: physicochemical; conditions: RP-HPLC retention time, analytical C2 column, CH3CN/H2O gradient
Protocol: Peptide synthesis, lipid moiety conjugation, and fluorescent labeling. Peptides were synthesized on Rink Amide MBHA resin by using the F-moc strategy. Several peptides contain a lysine residue at their C-terminus with an MTT side-chain protecting group (Nova-biochem AG, Switzerland) that requires a special deprotection step under mild acidic conditions (2×1 min of 5% trifluoroacetic acid (TFA) in dichloromethane (DCM) and 30 min of 1% TFA in DCM). This enables the conjugation of a lipid moiety or a fluorescent probe to the C-terminus. The chemical synthesis schemes of the following compounds 1-5 are described in FIG. 6. Conjugation of hexadecanoic (palmitic) acid (C16) or α-Tocopherol succinate (Sigma Chemical Co., Israel) to the N-terminus of selected peptides (compound 2 and compound 4, respectively) was performed using standard F-moc chemistry. Conjugation of cholesterol to the N-terminus of a peptide (compound 3) was performed by adding 10 equivalents of cholesteryl chloroformate (Alfa Aesar, USA) dissolved in DCM, together with 3 equivalents of triethyl amine to the peptides' resin. Conjugation of D-erythro-Dihydrosphingosine (D-erythro sphinganine), (Matreya, LCC, USA) to the N- or C-terminus of a peptide (compound 1) was performed as followed: first, 10 equivalents of N,N′-Disuccinimidyl carbonate (DSC) (Chem-Impex Internatinal, USA) and 20 equivalents of N,N-Diisopropylethylamine (DIEA) were added to the resin for 2 hours in dimethylformamide (DMF). Then, 2 equivalents of sphinganine and 2 equivalents of DIEA were added for overnight incubation in DMF anhydrous. The conjugation of D-erythro-Sphingosine (Matreya, LCC, USA) to the peptides (compound 5) was performed as described for compound 1. Addition of NBD-F, fluoride (4-fluoro-7-nitrobenzofurazan) (NBD) fluorescent probe (Biotium, USA) to the N- or C-terminus of selected peptides was performed in DMF for 1 hour. All peptides were cleaved from the resin by a TFA:DDW:TES (93.1:4.9:2 (v/v)) mixture, and purified by reverse-phase high-performance liquid chromatography (RP-HPLC) to >95% homogeneity. The molecular weight of the peptides was confirmed by platform LCA electrospray mass spectrometry. For hydrophobicity tests the peptides were eluted with a flow rate of 0.6 ml/min using a two-step linear gradient from CH3CN/H2O 20:80 v/v to CH3CN/H2O 95:5 v/v in 30 min and from CH3CN/H2O 95:5 v/v to CH3CN/H2O 95:5 in 10 min v/v on an analytical C2 column (7 μm particle size, pore size 100 Å) from Nucleosil.
Hydrophobicity (min): Hydrophobicity was analyzed by RP-HPLC. The retention time of each compound is presented.

[6] = system: pseudotyped virus with AD8 ENV (CCR5 tropic)
[7] = Peptide binding to LUV, PC:SM:Chol (1:1:1); conditions: Ka, NBD-labeled compound titrated with LUV; mean±s.d. of the fitting curve, n=3
Protocol: as §1, §2, §3, §4

[8] = system: Fuzeon-resistant LAI strain with V38E mutation in gp41; test: Fuzeon-resistant virus infection; conditions: mutation in the GIV sequence (V38E)
[9] = fully infectious HIV-1 system (Table 2)

Molecule | Effect on viral infectivity / fusion (in words) ([1]; at / up to 1 μM) | IC50 [1, 9] [nM] | IC50 ([1]; read-out: IC50 (inhibitory concentration at 50% infectivity), TZM-bl cells, fully contagious HXB2 HIV-1) [nM] | Viral infectivity curves, compound added to target cells before the virus vs immediately after ([1]; time of addition) | IC50 [2] [nM] | Helicity (%) [3] [%] | Membrane-binding constant (M^−1), PC:Chol (9:1) [4] [M⁻¹] | Hydrophobicity [5] [min] | IC50 [6] [nM] | Membrane-binding constant (M^−1), PC:SM:Chol (1:1:1) [7] [M⁻¹] | Antiviral activity against V38E mutant (in words) [8] | IC50 ([1]; read-out: Virus-cell fusion IC50, TZM-bl cells infected with fully contagious HIV, mean±s.d., n=3) [nM]
CCCCCCCCCCCCCCC[C@@H](O)[C@H](CO)NC(=O)N[C@@H](CC(C)C)C(=O)N[C@@H](CC(C)C)C(=O)N[C@@H](CCC(N)=O)C(=O)N[C@@H](CC(C)C)C(=O)N[C@H](C(=O)N[C@H](C(=O)N[C@@H](Cc1c[nH]c2ccccc12)C(=O)NCC(=O)N[C@H](C(=O)N[C@@H](CCCCN)C(=O)N[C@@H](CCC(N)=O)C(=O)N[C@@H](CC(C)C)C(=O)N[C@@H](CCC(N)=O)C(=O)N[C@@H](C)C(=O)N[C@@H](CCCNC(=N)N)C(=O)N[C@H](C(=O)N[C@@H](CC(C)C)C(N)=O)[C@@H](C)CC)[C@@H](C)CC)C(C)C)[C@@H](C)O [Sphinganine-N17, Sphinganine-LLQLTVWGIKQLQARIL] ({Sphinganine-CO}-LLQLTVWGIKQLQARIL-NH2) | completely blocks fusion | 121 ± 36 | 121 | no difference | 312 | <10 | 470000 ± 100000 | 27.2 | 403 | 84000 ± 14000 | preserved its potent antiviral activity | 
CCCCCCCCCCCCCCCC(=O)N[C@@H](CC(C)C)C(=O)N[C@@H](CC(C)C)C(=O)N[C@@H](CCC(N)=O)C(=O)N[C@@H](CC(C)C)C(=O)N[C@H](C(=O)N[C@H](C(=O)N[C@@H](Cc1c[nH]c2ccccc12)C(=O)NCC(=O)N[C@H](C(=O)N[C@@H](CCCCN)C(=O)N[C@@H](CCC(N)=O)C(=O)N[C@@H](CC(C)C)C(=O)N[C@@H](CCC(N)=O)C(=O)N[C@@H](C)C(=O)N[C@@H](CCCNC(=N)N)C(=O)N[C@H](C(=O)N[C@@H](CC(C)C)C(N)=O)[C@@H](C)CC)[C@@H](C)CC)C(C)C)[C@@H](C)O [Palmitic acid-N17] (Palmitoyl-LLQLTVWGIKQLQARIL-NH2) |  | > 4000 |  |  |  | <10 | 170000 ± 30000 | 26.7 |  | 150000 ± 70000 |  | > 4000
enfuvirtide |  |  |  |  |  |  | 64000 ± 14000 |  |  | 31000 ± 5000 | considerably weakened the antiviral activity | 

— US20150045291A1, “LIPOPEPTIDE CONJUGATES COMPRISING SPHINGOLIPID AND HIV GP41 DERIVED PEPTIDES” (priority 2012, published 2015)
